# From patent US20250176598A1, “AMIDE COMPOUNDS AND THEIR USE AS FLAVOR MODIFIERS” (Firmenich Incorporated, priority 2022, published 2025)
# Biological target: T1, T1R umami taste receptor (Homo sapiens, UniProt Q7RTX0+Q7RTX1)
# T1 sequence (Q7RTX1 21-841): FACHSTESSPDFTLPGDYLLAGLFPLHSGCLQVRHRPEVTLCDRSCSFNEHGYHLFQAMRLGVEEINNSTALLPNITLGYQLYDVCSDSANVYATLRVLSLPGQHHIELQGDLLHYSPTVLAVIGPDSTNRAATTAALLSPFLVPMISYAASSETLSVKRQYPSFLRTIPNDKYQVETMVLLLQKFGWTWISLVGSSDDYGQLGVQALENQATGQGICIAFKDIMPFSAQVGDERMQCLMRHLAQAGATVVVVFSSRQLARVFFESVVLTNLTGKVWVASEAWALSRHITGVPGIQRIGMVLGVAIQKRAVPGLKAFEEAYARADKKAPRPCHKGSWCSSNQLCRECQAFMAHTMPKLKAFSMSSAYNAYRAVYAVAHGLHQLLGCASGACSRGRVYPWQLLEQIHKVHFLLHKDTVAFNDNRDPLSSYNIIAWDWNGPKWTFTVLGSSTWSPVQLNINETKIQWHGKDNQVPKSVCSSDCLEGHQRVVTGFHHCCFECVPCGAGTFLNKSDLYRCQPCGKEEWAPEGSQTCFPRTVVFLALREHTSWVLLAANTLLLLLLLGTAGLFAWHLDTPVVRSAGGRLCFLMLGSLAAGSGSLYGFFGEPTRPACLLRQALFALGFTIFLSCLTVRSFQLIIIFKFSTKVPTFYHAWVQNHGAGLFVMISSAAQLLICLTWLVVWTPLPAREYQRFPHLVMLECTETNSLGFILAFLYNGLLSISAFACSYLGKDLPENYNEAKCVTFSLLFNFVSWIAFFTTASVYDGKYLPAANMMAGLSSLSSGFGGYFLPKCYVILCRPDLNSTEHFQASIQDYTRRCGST
# T1 sequence (Q7RTX0 21-852): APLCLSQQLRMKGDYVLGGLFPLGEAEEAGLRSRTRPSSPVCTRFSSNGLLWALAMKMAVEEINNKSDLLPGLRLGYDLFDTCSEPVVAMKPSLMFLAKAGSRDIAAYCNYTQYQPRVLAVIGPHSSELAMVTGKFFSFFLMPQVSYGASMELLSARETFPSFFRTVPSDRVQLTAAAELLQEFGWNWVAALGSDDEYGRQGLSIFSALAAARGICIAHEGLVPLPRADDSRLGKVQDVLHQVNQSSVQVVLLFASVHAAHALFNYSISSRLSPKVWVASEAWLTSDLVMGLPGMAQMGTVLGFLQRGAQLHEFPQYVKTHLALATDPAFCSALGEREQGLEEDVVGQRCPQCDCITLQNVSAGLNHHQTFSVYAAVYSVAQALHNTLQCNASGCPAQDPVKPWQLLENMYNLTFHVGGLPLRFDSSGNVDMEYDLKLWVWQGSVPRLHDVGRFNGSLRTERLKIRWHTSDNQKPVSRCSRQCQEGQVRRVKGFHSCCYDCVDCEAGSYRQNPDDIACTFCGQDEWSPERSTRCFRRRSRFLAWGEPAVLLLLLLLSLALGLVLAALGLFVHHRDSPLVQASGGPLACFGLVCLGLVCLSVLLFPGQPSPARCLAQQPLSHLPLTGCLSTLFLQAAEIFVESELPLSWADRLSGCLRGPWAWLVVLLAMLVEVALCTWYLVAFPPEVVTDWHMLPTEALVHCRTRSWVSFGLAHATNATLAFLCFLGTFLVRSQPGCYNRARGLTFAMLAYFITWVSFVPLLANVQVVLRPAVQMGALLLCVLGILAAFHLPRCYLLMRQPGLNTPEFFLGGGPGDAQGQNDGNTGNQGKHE
# Assay: in vitro cell-based assay, cells expressing the T1R umami taste receptor; enhancement of MSG
# Conditions: MSG enhancement ratio at a particular concentration (concentration not given)
# Experimental: Each of Compounds 101-145 was synthesized according to one of the general procedures set forth above in Examples 1 and Example 2. Thereafter, the compounds were tested in an in vitro cell-based assay having cells that express the T1R umami taste receptor. Dose-binding curves were recorded and the EC50 was determined for enhancement of MSG binding. Table 2 sets forth the calculated EC50 values for certain tested compounds as well as the MSG enhancement ratio at a particular concentration.
row,Structure (SMILES),MSG Enh. Ratio
1,"CCOc1ccc(/C=C/C(=O)N[C@H](CO)[C@@H](C)CC)cc1 [Compound 118, (E)-3-(4-ethoxyphenyl)-N-((2S,3S)-1-hydroxy-3-methylpentan-2-yl)acrylamide]",6.0
2,"Cc1ccc(C(=O)N[C@H](Cc2ccccc2)C(=O)O)cc1 [Compound 120, (4-methylbenzoyl)-D-phenylalanine]",1.3
3,"Cc1ccc(C(=O)N[C@H](C(=O)O)C(C)C)cc1C [Compound 121, (3,4-dimethylbenzoyl)-L-valine]",1.1
4,"Cc1ccc(C(=O)N[C@@H](CC(C)C)C(=O)O)cc1 [Compound 123, (4-methylbenzoyl)-L-leucine]",1.2
5,"Cc1ccc(C(=O)N[C@@H](C(=O)O)C(C)C)cc1C [Compound 124, (3,4-dimethylbenzoyl)-D-valine]",1.2
6,"Cc1ccc(C(=O)N[C@H](Cc2ccccc2)C(=O)O)cc1C [Compound 125, (3,4-dimethylbenzoyl)-D-phenylalanine]",1.3
7,"Cc1ccc(C(=O)N[C@H](CC(C)C)C(=O)O)cc1C [Compound 126, (3,4-dimethylbenzoyl)-D-leucine]",1.8
8,"COc1ccc(C[C@H](NC(=O)c2ccc(C)c(C)c2)C(=O)O)cc1 [Compound 127, (S)-2-(3,4-dimethylbenzamido)-3-(4-methoxyphenyl) propanoic acid]",2.0
9,"Cc1ccc(C(=O)N[C@@H](CCC(=O)O)C(=O)O)cc1C [Compound 128, (3,4-dimethylbenzoyl)-L-glutamic acid]",1.4
10,"CC(C)C[C@@H](NC(=O)c1ccc2c(c1)OCO2)C(=O)O [Compound 129, (benzo[d][1,3]dioxole-5-carbonyl)-D-leucine]",3.5
11,"O=C(O)CC[C@H](NC(=O)c1ccc2c(c1)OCO2)C(=O)O [Compound 131, (benzo[d][1,3]dioxole-5-carbonyl)-L-glutamic acid]",1.2
12,"CC(C)[C@H](NC(=O)/C=C/c1ccccc1)C(=O)O [Compound 132, Cinnamoyl-L-valine]",1.7
13,"CC(C)C[C@H](NC(=O)/C=C/c1ccccc1)C(=O)O [Compound 133, Cinnamoyl-L-leucine]",1.1
14,"O=C(O)CC[C@H](NC(=O)/C=C/c1ccccc1)C(=O)O [Compound 134, Cinnamoyl-L-glutamate]",1.2
15,"COc1ccc(/C=C/C(=O)N[C@@H](Cc2ccc(OC)cc2)C(=O)O)cc1 [Compound 135, (S,E)-3-(4-methoxyphenyl)-2-(3-(4-methoxyphenyl)acrylamido)propanoic acid]",2.0

# Same assay, conditions: cells that express the T1R umami taste receptor; dose-binding curves
row,Structure (SMILES),EC50
1,"COc1ccc(/C=C/C(=O)N[C@H](CO)Cc2ccccc2)cc1 [Compound 116, (S,E)-3-(4-methoxyphenyl)-N-(1-hydroxy-3-phenylpropan-2-yl)acrylamide]",11 µM
2,"CCOc1ccc(/C=C/C(=O)N[C@H](CO)[C@@H](C)CC)cc1 [Compound 118, (E)-3-(4-ethoxyphenyl)-N-((2S,3S)-1-hydroxy-3-methylpentan-2-yl)acrylamide]",~40 µM
3,"CCOc1ccc(/C=C/C(=O)N[C@H](CO)Cc2ccccc2)cc1 [Compound 119, (S,E)-3-(4-ethoxyphenyl)-N-(1-hydroxy-3-phenylpropan-2-yl)acrylamide]",10 µM
4,"Cc1ccc(C(=O)N[C@H](Cc2ccccc2)C(=O)O)cc1 [Compound 120, (4-methylbenzoyl)-D-phenylalanine]",> 50 µM
5,"Cc1ccc(C(=O)N[C@H](C(=O)O)C(C)C)cc1C [Compound 121, (3,4-dimethylbenzoyl)-L-valine]",> 50 µM
6,"Cc1ccc(C(=O)N[C@@H](CC(C)C)C(=O)O)cc1 [Compound 123, (4-methylbenzoyl)-L-leucine]",> 50 µM
7,"Cc1ccc(C(=O)N[C@@H](C(=O)O)C(C)C)cc1C [Compound 124, (3,4-dimethylbenzoyl)-D-valine]",> 50 µM
8,"Cc1ccc(C(=O)N[C@H](Cc2ccccc2)C(=O)O)cc1C [Compound 125, (3,4-dimethylbenzoyl)-D-phenylalanine]",> 50 µM
9,"Cc1ccc(C(=O)N[C@H](CC(C)C)C(=O)O)cc1C [Compound 126, (3,4-dimethylbenzoyl)-D-leucine]",27 µM
10,"COc1ccc(C[C@H](NC(=O)c2ccc(C)c(C)c2)C(=O)O)cc1 [Compound 127, (S)-2-(3,4-dimethylbenzamido)-3-(4-methoxyphenyl) propanoic acid]",> 50 µM
11,"Cc1ccc(C(=O)N[C@@H](CCC(=O)O)C(=O)O)cc1C [Compound 128, (3,4-dimethylbenzoyl)-L-glutamic acid]",> 50 µM
12,"CC(C)C[C@@H](NC(=O)c1ccc2c(c1)OCO2)C(=O)O [Compound 129, (benzo[d][1,3]dioxole-5-carbonyl)-D-leucine]",~20 µM
13,"O=C(O)CC[C@H](NC(=O)c1ccc2c(c1)OCO2)C(=O)O [Compound 131, (benzo[d][1,3]dioxole-5-carbonyl)-L-glutamic acid]",> 50 µM
14,"CC(C)[C@H](NC(=O)/C=C/c1ccccc1)C(=O)O [Compound 132, Cinnamoyl-L-valine]",> 50 µM
15,"CC(C)C[C@H](NC(=O)/C=C/c1ccccc1)C(=O)O [Compound 133, Cinnamoyl-L-leucine]",> 50 µM
16,"O=C(O)CC[C@H](NC(=O)/C=C/c1ccccc1)C(=O)O [Compound 134, Cinnamoyl-L-glutamate]",> 50 µM
17,"COc1ccc(/C=C/C(=O)N[C@@H](Cc2ccc(OC)cc2)C(=O)O)cc1 [Compound 135, (S,E)-3-(4-methoxyphenyl)-2-(3-(4-methoxyphenyl)acrylamido)propanoic acid]",> 50 µM

# Same assay, conditions: compound at 10 uM
row,Structure (SMILES),MSG Enh. Ratio @ [10 uM]
1,"COc1ccc(/C=C/C(=O)N[C@H](CO)Cc2ccccc2)cc1 [Compound 116, (S,E)-3-(4-methoxyphenyl)-N-(1-hydroxy-3-phenylpropan-2-yl)acrylamide]",6.9 @ [10 uM]
2,"CCOc1ccc(/C=C/C(=O)N[C@H](CO)Cc2ccccc2)cc1 [Compound 119, (S,E)-3-(4-ethoxyphenyl)-N-(1-hydroxy-3-phenylpropan-2-yl)acrylamide]",6.1 @ [10 uM]
